Data set [1] concerns GMR-Gal4 UAS-CTG(480) flies. The data set is described as follows: Endogenous expression of p10-derived peptides (Gal4/UAS), rough eye phenotype. The data set is classed as in vivo, Drosophila. An excerpt:
Thus, three different transgenes were designed, with SEQ ID NO: 17-19 (p17-p19), which encoded different peptides, all based on sequence SEQ ID NO: 10 corresponding to p10 (FIG. 9), taking into consideration the codon usage bias in Drosophila (i.e. favouring the use of G, and in particular C, in the synonymous sites; Powell & Moriyama, 1997) and adding an initial Methionine, as well as three spacer Glycines, to sequence SEQ ID NO: 10. Moreover, upstream from the […] initiation codon, 21 nucleotides of the 5′UTR end of the act5C gene of Drosophila which included the Kozak sequence were added, in order to enhance the expression of the transgenes.
p17 contained the direct sequence of the peptide of SEQ ID NO: 10. As discussed above, the peptides in the hexapeptide chemical library are composed of D-amino acids. The D-forms (dextrogyre) of amino acids are stereoisomers of the L-forms (levogyres) and only L-amino acids are synthesised in the cells and incorporated into proteins. Consequently, if the arrangement of the lateral chains of p10 is important for the function thereof, the latter would be lost when p17 is synthesised by Drosophila from L-aa. For this reason, it was decided to generate construct p18, wherein the peptide sequence of SEQ ID NO: 10 was inverted, leading to a retro-inverse peptide (Chorev & Goodman, 1995; P. M. Fischer, 2003). At the time when these transgenes were generated, the smallest constructs described in the literature encoded peptides with more than 20 amino acids, which is more than twice the size of peptides p17 and p18 (which have only ten amino acids). For this reason, construct p19 was generated, which combined the constructs of peptides p17 and p18, leading to a peptide with 19 amino acids. The three constructs were microinjected in the precursors of the germinal line of Drosophila embryos, leading to 10 lines of transgenic flies for each transgene.
The transgenic flies obtained were crossed with the GMR-Gal4 UAS-CTG(480)/CyO and Mhc-Gal4 UAS-CTG(480)/TM6b recombinant fly lines generated during this invention, which directed the expression of the CTG repeats in the eye and the muscle, respectively. As in the case of the sev-Gal4 UAS-CTG(480)/+ flies, the adult GMR-Gal4 UAS-CTG(480)/UAS-GFP flies presented a strong rough eye phenotype. […] However, the opposite phenomenon occurred at 25° C. and at 29° C. […] Given that changes in temperature affect the expression of the CTG(480) transgenes and peptides p17-p19 in a different manner, since the latter are inserted in different regions of the genome, there may be a relation between the quantity of peptide and of repeats that must be reached, whereafter p10 becomes toxic.

Another data set concerns 2-AP-(CUG)23 RNA. The data set is described as follows: 2-aminopurine fluorescence assay (hairpin opening). The data set is classed as biochemical. The following applies: 100 μM. On the procedure: Measurements of the fluorescence emitted (Y-axis), measured as relative fluorescence units (RFU), by 2-aminopurine in a (CUG)23 RNA (1 μM) in the presence of MblZF (0.1 μM, 1 μM, 2 μM and 5 μM) (A) or p10 (0.1 μM, 1 μM, 2 μM, 5 μM and 100 μM) (B), relative to the fluorescence emitted by the free RNA. p10 caused a 2.9-increase in the fluorescence of 2-AP at 100 μM, which indicates a change towards single-stranded. This effect was not observed when incubating the RNA with DMSO, or with the alanine scanning peptides with sequences: ppyawa and payawe (C).
In order to confirm whether said changes cause a loss of the hairpin loop structure, an experiment was performed using an RNA composed of 23 CUG repeats, wherein a guanine had been substituted with its analogue 2-aminopurine (2-AP-(CUG)23). When 2-AP is in a single-stranded environment, it emits fluorescence at 375 nm. […] However, upon increasing the concentration of p10 to 100 μM (RNA:peptide 1:100), the 2AP-(CUG)23 RNA underwent a conformational change, from double-stranded to single-stranded, with a 2.9-fold increase in the fluorescence emission of the molecule (FIG. 28B). In order to confirm the specificity of this effect, the same experiment was performed, incubating the alanine scanning peptides (payawe and ppyawa) with the 2-AP-(CUG)23 RNA at the same concentration as p10 (100 μM).
As may be observed in FIG. 29, in this example we use the 2-aminopurine assay in order to assay 4 peptides (p11, p5, p12 and p15) in addition to p10, obtained from the deconvolution of the combinatorial peptide library explained in this invention. […] The concentration used in all cases is 100 μM.

Data set [2] deals with 103Y-Gal4/+;UAS-CTG(480)/+ flies. The data set is described as follows: Lethality phenotype in pupae caused by expression of 480 CTG under 103Y-Gal4 (females born). As to conditions: 80 μM; females born vs DMSO control; * p-value <0.05. Further details: key to Treated born/Control born: —: - indicates that no females were born, in neither the control tubes and the treated tubes. In kind it is in vivo, Drosophila. On the procedure: The 120 vials that make up the chemical library were individually assayed on the lethality phenotype in pupae caused by the expression of 480 CTG under the control of 103Y-Gal4 at a concentration of 80 μM. […] Thus, for positions O1, O2, O3, O4, O5 and O6 of the hexapeptide, a total of six, three, six, four, two and seven active amino acids were obtained, respectively (FIG. 2A). In order to perform the deconvolution, 10 of these 28 amino acids were selected, on the basis of their degree of activity in the biological assay (FIG. 2A). Finally, of the possible combinations, 16 sequences were selected to perform the synthesis of the defined hexapeptides (FIG. 2B). The selection of these 16 peptides was based on redundancy criteria between the physical and chemical properties of active amino acids in similar positions.
At 250 μM, the activity of the peptide decreased, possibly due to a toxic effect of the peptide at higher concentrations.
In order to determine the contribution of each of the p10 residues to their activity on CTG(480), an alanine scanning experiment was performed. These experiments are based on substituting every amino acid of the peptide with alanine and keeping the rest. Alanine is a small amino acid and, in general, not very active; this is why it is used for this type of studies. Since each alanine substitution examines the contribution of an individual amino acid, this experiment makes it possible, on the one hand, to evaluate whether p10 is susceptible to optimisation (in the event that a substitution increases the efficacy of the molecule), or to determine which amino acids are important for its function (in the event that a substitution decreases the activity thereof). The sequence of p10 allows for 5 substitutions; for this reason, 5 new hexapeptides were synthesised which were assayed in relation to the lethality phenotype in 103Y-Gal4; UAS-CTG(480)/+ flies and commercial food.

For data set [3] the test system is unchanged. The data set is described as above. Also noted: key: —: - indicates that no females were born, in neither the control tubes and the treated tubes. The data set is classed as in vivo, Drosophila. As to conditions: females born vs DMSO control.
The subject of the next data set is FVB wild strain mice. The data set is described as follows: Toxicity of p10 in mammals, intramuscular injection. In kind it is in vivo. On the procedure:
In order to study the possible toxic effect of p10 in mammals and establishing the maximum tolerable dose for subsequent assays, the peptide was administered to mice from the FVB wild strain. Due to the low absorption of peptides by the intestinal walls, it was decided to perform intramuscular injections in the anterior tibial muscle of animals 4-5 weeks of age, using four different doses (0.5 μg, 1 μg, 10 μg and 100 μg), with a total of 6 mice per dose (3 females and 3 males). 4 weeks after the injection, the animals were sacrificed and a visual autopsy was performed, jointly with a histomorphological study of the muscle and a blood test (FIG. 31). As a control, animals injected with the same quantity of DMSO (0.2% for the 0.5-μg and 1-μg doses, and 2% for the 10-μg and 100-μg doses) were used.
However, the blood tests did show differences between the treated animals and the control. As a marker of renal activity, we measured the quantity of […], urea and creatinine in the blood. The creatine phosphokinase (CPK) enzyme was used as a marker of damage to the skeletal muscle and the heart, and alkaline phosphatase (AP), gamma-glutamyl transpeptidase (GGT) and glutamate pyruvate transaminase (GPT) were used as markers of hepatic damage. […] This could be due to the toxicity of DMSO or to the injection itself. […] Urea is the final result of protein metabolism. It is formed in the liver and eliminated in the urine. If the kidney is not functioning correctly, urea accumulates in the blood. GPT is an enzyme that is present in the liver at a high concentration and, to a lower extent, in the kidneys, the heart and the muscles. When there is an injury in these organs, the enzyme is released into the blood and appears high in tests. Moreover, it is worth noting that two of the mice treated with the 100-μg dose died approximately 11 days after the injection (p/i), which confirms the toxicity of p10 when it exceeds a threshold value. It was possible to extract blood from one of these two animals just before it died.

The mark [4] stands for this setting: 100-μg dose, one mouse just before it died.

The text below walks through data of US20130143825A1, “COMPOUNDS FOR USE IN THE TREATMENT OF DISEASES BASED ON THE EXPRESSION OF TOXIC TRANSCRIPTS” (UNIVERSITAT DE VALENCIA, priority 2010, published 2013).

Non-standard residues stand in square brackets, D forms with d. Residues, ends and D or L forms follow the SMILES beside them. No end group written: not given here.

As to “p17: endogenously expressed ten amino acid peptide: initial Methionine, three spacer Glycines and the direct sequence of p10 (MGGGPPYAWE)”, the “rough eye phenotype on co-expression with CTG(480)” value in data set [1] (19° C. and 21° C.) is reported as “not”. Moreover, the “transgenic lines assayed that modified the phenotype of GMR-Gal4 UAS-CTG(480) flies” value in data set [1] (in vivo) is listed as “none of the five lines”.

Take “p11: defined hexapeptide obtained following deconvolution of the D-amino acid combinatorial library ([dP][dP][dY][dT][dQ][dE])”: the “destructuration of CUG23 probe, comparative 2-aminopurine assay” value in the data set with 2-AP-(CUG)23 RNA was “significant levels of specificity and efficacy”. Also, in data set [2], the “Treated born/Control born” value was 0.8.

For the molecule “p9: defined hexapeptide obtained following deconvolution of the D-amino acid combinatorial library ([dP][dP][dY][dA][dQ][dE])”, the “Treated born/Control born” value in data set [2] was 2.0.

Consider “p4: defined hexapeptide obtained following deconvolution of the D-amino acid combinatorial library ([dC][dP][dY][dT][dW][dE])”, for which the “Treated born/Control born” value in data set [3] (62 μM) was “—”.

For the molecule “p12: defined hexapeptide obtained following deconvolution of the D-amino acid combinatorial library ([dP][dP][dY][dT][dW][dE])”, the “destructuration of CUG23 probe, comparative 2-aminopurine assay” value with 2-AP-(CUG)23 RNA is “significant levels of specificity and efficacy”. The “Treated born/Control born” value in data set [2] is listed as 3.0.

For “p14: defined hexapeptide obtained following deconvolution of the D-amino acid combinatorial library ([dP][dQ][dY][dA][dW][dE])”, in data set [3] (40 μM), the “Treated born/Control born” value stood at 1.8.

Consider “p3: defined hexapeptide obtained following deconvolution of the D-amino acid combinatorial library ([dC][dP][dY][dT][dQ][dE])”, for which, in data set [2], the “Treated born/Control born” value stood at 0.8.

As to `C[C@@H](NC(=O)[C@@H](Cc1ccc(O)cc1)NC(=O)[C@H]1CCCN1C(=O)[C@H]1CCCN1)C(=O)N[C@H](Cc1c[nH]c2ccccc12)C(=O)N[C@H](CCC(=O)O)C(=O)O` [p10] (H-[dP][dP][dY][dA][dW][dE]-OH), the “visual autopsy and histological analysis of the muscles vs DMSO controls” value in the data set on FVB wild strain mice (0.5, 1, 10, 100 μg i.m., 4 weeks after injection) was “did not reveal significant differences”. Besides, in the data set with FVB wild strain mice (10-μg and 100-μg doses i.m.), the “urea and GPT in the blood vs controls” value was “even higher values of urea and GPT”. Also, in the data set on FVB wild strain mice (100-μg dose), the “time of death after the injection” value was “approximately 11 days”. Also, the mice that died result with FVB wild strain mice (100-μg dose, 6 mice per dose) is recorded as “two”. Moreover, in the data set with FVB wild strain mice (setting [4]), the “CPK in blood, times greater than the control with DMSO” value is recorded as 15 times; the “CPK in blood, times greater than the upper limit of the standard values” is 28 times; the “urea, creatinine, CPK and GGT in the blood” value is recorded as “extremely high values”.

Turning to “p8: defined hexapeptide obtained following deconvolution of the D-amino acid combinatorial library ([dC][dQ][dY][dT][dW][dE])”, the “Treated born/Control born” value in data set [3] (57 μM) came out at 0.9.

Regarding “p7: defined hexapeptide obtained following deconvolution of the D-amino acid combinatorial library ([dC][dQ][dY][dT][dQ][dE])”, the “Treated born/Control born” value in data set [2] is 1.4.

Consider “p1: defined hexapeptide obtained following deconvolution of the D-amino acid combinatorial library ([dC][dP][dY][dA][dQ][dE])”, for which the “Treated born/Control born” value in data set [2] was determined as 0.3.

“p2: defined hexapeptide obtained following deconvolution of the D-amino acid combinatorial library ([dC][dP][dY][dA][dW][dE])”: in data set [2], the “Treated born/Control born” value is “—”.

In the case of “p13: defined hexapeptide obtained following deconvolution of the D-amino acid combinatorial library ([dP][dQ][dY][dA][dQ][dE])”, in data set [2], the “Treated born/Control born” value was 0.8.
